≈ marks a conversion by molar mass, not a printed value.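 How tested: cells in 96-well plates exposed to compound for 48 hours at five concentrations. GI50 is the concentration that inhibits growth by half. TGI marks complete inhibition of growth.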 Peptide text beside a SMILES is read from it.
Experiments:
Assay in all cases: DTP human tumour cell line panel, 48 h
A549 NSCLC = system: A549 NSCLC
ACHN renal = system: ACHN renal
CAKI-1 renal = system: CAKI-1 renal
CCRF-CEM leukemia = system: CCRF-CEM leukemia
COLO 205 colon = system: COLO 205 colon
DU-145 prostate = system: DU-145 prostate
EKVX NSCLC = system: EKVX NSCLC
HCC-2998 colon = system: HCC-2998 colon
HCT-116 colon = system: HCT-116 colon
HCT-15 colon = system: HCT-15 colon
HL-60(TB) leukemia = system: HL-60(TB) leukemia
HOP-92 NSCLC = system: HOP-92 NSCLC
HS 578T breast = system: HS 578T breast
HT29 colon = system: HT29 colon
IGROV1 ovarian = system: IGROV1 ovarian
K-562 leukemia = system: K-562 leukemia
KM12 colon = system: KM12 colon
M14 melanoma = system: M14 melanoma
MCF7 breast = system: MCF7 breast
MDA-MB-231 breast = system: MDA-MB-231 breast
MDA-MB-435 = system: MDA-MB-435
MOLT-4 leukemia = system: MOLT-4 leukemia
NCI-H23 lung = system: NCI-H23 lung
NCI-H460 lung = system: NCI-H460 lung
NCI-H522 lung = system: NCI-H522 lung
NCI/ADR-RES ovarian = system: NCI/ADR-RES ovarian
OVCAR-3 ovarian = system: OVCAR-3 ovarian
OVCAR-4 ovarian = system: OVCAR-4 ovarian
OVCAR-5 ovarian = system: OVCAR-5 ovarian
OVCAR-8 ovarian = system: OVCAR-8 ovarian
RPMI-8226 leukemia = system: RPMI-8226 leukemia
RXF 393 renal = system: RXF 393 renal
SF-268 CNS = system: SF-268 CNS
SF-295 CNS = system: SF-295 CNS
SF-539 CNS = system: SF-539 CNS
SK-MEL-2 melanoma = system: SK-MEL-2 melanoma
SK-MEL-28 melanoma = system: SK-MEL-28 melanoma
SK-MEL-5 melanoma = system: SK-MEL-5 melanoma
SK-OV-3 ovarian = system: SK-OV-3 ovarian
SN12C renal = system: SN12C renal
SNB-19 CNS = system: SNB-19 CNS
SNB-75 CNS = system: SNB-75 CNS
SR leukemia = system: SR leukemia
SW-620 colon = system: SW-620 colon
T-47D breast = system: T-47D breast
TK-10 renal = system: TK-10 renal
U251 CNS = system: U251 CNS
UACC-257 melanoma = system: UACC-257 melanoma
UACC-62 melanoma = system: UACC-62 melanoma
UO-31 renal = system: UO-31 renal
A498 renal = system: A498 renal
MALME-3M melanoma = system: MALME-3M melanoma

## CCOC(=O)/C(=N/Nc1ccc(Cl)cc1)N1C(=S)C=C(C)NN(C)C1=S
A549 NSCLC
  TGI: > 100 µM
ACHN renal
  TGI: > 100 µM
CAKI-1 renal
  TGI: > 100 µM
CCRF-CEM leukemia
  TGI: > 100 µM
COLO 205 colon
  TGI: > 100 µM
DU-145 prostate
  TGI: > 100 µM
EKVX NSCLC
  TGI: 73 µM
HCC-2998 colon
  TGI: > 100 µM
HCT-116 colon
  TGI: > 100 µM
HCT-15 colon
  TGI: > 100 µM
HL-60(TB) leukemia
  TGI: > 100 µM
HOP-92 NSCLC
  TGI: > 100 µM
HS 578T breast
  TGI: > 100 µM
HT29 colon
  TGI: > 100 µM
IGROV1 ovarian
  TGI: > 100 µM
K-562 leukemia
  TGI: > 100 µM
KM12 colon
  TGI: > 100 µM
M14 melanoma
  TGI: > 100 µM
MCF7 breast
  TGI: > 100 µM
MDA-MB-231 breast
  TGI: > 100 µM
MDA-MB-435
  TGI: > 100 µM
MOLT-4 leukemia
  TGI: > 100 µM
NCI-H23 lung
  TGI: > 100 µM
NCI-H460 lung
  TGI: > 100 µM
NCI-H522 lung
  TGI: 50.2 µM
NCI/ADR-RES ovarian
  TGI: > 100 µM
OVCAR-3 ovarian
  TGI: > 100 µM
OVCAR-4 ovarian
  TGI: > 100 µM
OVCAR-5 ovarian
  TGI: > 100 µM
OVCAR-8 ovarian
  TGI: 73.1 µM
RPMI-8226 leukemia
  TGI: > 100 µM
RXF 393 renal
  TGI: 41.1 µM
SF-268 CNS
  TGI: 85 µM
SF-295 CNS
  TGI: 42.3 µM
SF-539 CNS
  TGI: > 100 µM
SK-MEL-2 melanoma
  TGI: > 100 µM
SK-MEL-28 melanoma
  TGI: > 100 µM
SK-MEL-5 melanoma
  TGI: > 100 µM
SK-OV-3 ovarian
  TGI: > 100 µM
SN12C renal
  TGI: > 100 µM
SNB-19 CNS
  TGI: > 100 µM
SNB-75 CNS
  TGI: 69.3 µM
SR leukemia
  TGI: > 100 µM
SW-620 colon
  TGI: > 100 µM
T-47D breast
  TGI: 98.3 µM
TK-10 renal
  TGI: > 100 µM
U251 CNS
  TGI: 39.5 µM
UACC-257 melanoma
  TGI: > 100 µM
UACC-62 melanoma
  TGI: 90.6 µM
UO-31 renal
  TGI: > 100 µM

## CC(=O)NC(C(=O)NC(C)C(=O)N1CCCC1C(=O)O)C(C)C (stereo not drawn) (Ac-Val-Ala-Pro-OH; configuration not given here)
CCRF-CEM leukemia
  GI50: 89.9 µg/mL (≈ 275 µM)
HS 578T breast
  GI50: 65.6 µg/mL (≈ 200 µM)
SK-MEL-2 melanoma
  GI50: 83.8 µg/mL (≈ 256 µM)
SN12C renal
  GI50: 46.6 µg/mL (≈ 142 µM)

## CC/C(=C\c1ccc(Cl)c(Cl)c1)[N+](=O)[O-]
A498 renal
  TGI: 24.1 µM
DU-145 prostate
  TGI: 5.39 µM
EKVX NSCLC
  TGI: 7.88 µM
HCC-2998 colon
  TGI: 3.59 µM
HCT-116 colon
  TGI: > 100 µM
HL-60(TB) leukemia
  TGI: 5.67 µM
HS 578T breast
  TGI: > 100 µM
HT29 colon
  TGI: > 100 µM
IGROV1 ovarian
  TGI: 3.31 µM
K-562 leukemia
  TGI: 47.4 µM
KM12 colon
  TGI: 10.4 µM
MALME-3M melanoma
  TGI: 4.11 µM
MCF7 breast
  TGI: 3.48 µM
MDA-MB-231 breast
  TGI: 5.4 µM
MDA-MB-435
  TGI: 3.1 µM
MOLT-4 leukemia
  TGI: 2.01 µM
NCI-H23 lung
  TGI: 5.21 µM
NCI-H522 lung
  TGI: 3.49 µM
OVCAR-4 ovarian
  TGI: 7.57 µM
OVCAR-8 ovarian
  TGI: 3.4 µM
SF-268 CNS
  TGI: 4.57 µM
SF-295 CNS
  TGI: 5.36 µM
SK-MEL-2 melanoma
  TGI: 4.85 µM
SK-MEL-5 melanoma
  TGI: 3.92 µM
SNB-19 CNS
  TGI: 5.7 µM
SNB-75 CNS
  TGI: > 100 µM
SR leukemia
  TGI: 3.61 µM
SW-620 colon
  TGI: > 100 µM
TK-10 renal
  TGI: 4.04 µM
UACC-257 melanoma
  TGI: 3.58 µM
UACC-62 melanoma
  TGI: 3.89 µM

From PubChem BioAssay (NCI)
